Measurements as given in patent publication US10829520B2, “Beta-hairpin peptidomimetics” (POLYPHOR AG, priority 2015, dated 2020).
Read-outs that look alike come from different tables or passages of the source. Where a SMILES comes first, the peptide text is derived from it. Bridges are numbered along the chain shown (N, C = ends). [ ]: non-standard residue; d: D form. Cha = N[C@@H](CC1CCCCC1)C(=O)O; aThr = C[C@H](O)[C@H](N)C(=O)O; Tle = CC(C)(C)[C@H](N)C(=O)O; Nle = CCCC[C@H](N)C(=O)O; Orn = NCCC[C@H](N)C(=O)O; Dab = NCC[C@H](N)C(=O)O; Dap = NC[C@H](N)C(=O)O; Sar = CNCC(=O)O

Assays:
Type in all cases: cell-based
[1] = system: Acinetobacter baumannii 872842
[2] = system: Acinetobacter baumannii DSM 30008
In short: (§1)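 Inocula standardised to a 0.5 McFarland reference and diluted to about 10^6 CFU/mL in MH-II broth are incubated with two-fold peptide series containing 0.002% polysorbate 80. No visible growth after 18-20 hours at 35° C defines the MIC, in μg/mL.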

Escherichia coli 926415 = system: Escherichia coli 926415
[3] = system: Escherichia coli ATCC 25922
In short: as §1

[4] = system: Klebsiella pneumoniae 968733
[5] = system: Klebsiella pneumoniae SSI #3010
In short: as §1

[6] = system: Pseudomonas aeruginosa ATCC 27853
In short: as §1

[7] = system: human red blood cells (hRBC); test: Hemolysis of human red blood cells; settings: 100 μg/mL
In short: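 Peptides at 100 μg/mL were incubated with PBS-washed fresh human erythrocytes (20% v/v, ~0.9×10^9 cells/mL final) for 1 h at 37° C. with shaking. Supernatant OD540 was read after 8-fold dilution; percent hemolysis was expressed relative to the 2.5% Triton X-100 full-lysis control, with PBS/0.001% acetic acid as 0%.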

[8] = clinical isolate, Mueller-Hinton II broth, P-80 0.002% present

SMILES	Acinetobacter baumannii 872842 MIC [1]; 872842 [µg/mL]	Acinetobacter baumannii DSM 30008 MIC ([2]; DSM 30008) [µg/mL]	Escherichia coli 926415 MIC (Escherichia coli 926415; 926415) [µg/mL]	Escherichia coli ATCC 25922 MIC ([3]; ATCC 25922) [µg/mL]	Klebsiella pneumoniae 968733 MIC [4]; 968733 [µg/mL]	Klebsiella pneumoniae SSI #3010 MIC ([5]; SSI #3010) [µg/mL]	Pseudomonas aeruginosa ATCC 27853 MIC ([6]; ATCC 27853) [µg/mL]	Hemolysis at 100 μg/mL ([7]; red cells of human, 1 h) [%]	Acinetobacter baumannii 872842 MIC [1, 8] [µg/mL]	Acinetobacter baumannii DSM 30008 MIC ([2]; Mueller-Hinton II broth) [µg/mL]	Escherichia coli 926415 MIC (Escherichia coli 926415; [8]) [µg/mL]	Escherichia coli ATCC 25922 MIC ([3]; Mueller-Hinton II broth) [µg/mL]	Klebsiella pneumoniae 968733 MIC [4, 8] [µg/mL]	Klebsiella pneumoniae SSI #3010 MIC ([5]; Mueller-Hinton II broth) [µg/mL]	Pseudomonas aeruginosa ATCC 27853 MIC ([6]; Mueller-Hinton II broth) [µg/mL]	Hemolysis at 100 μg/mL ([7]; 20% hRBC, 1 h at 37° C.) [%]
CCCC[C@@H]1NC(=O)[C@@H]2CCCN2C(=O)[C@H]2CCCN2C(=O)[C@H](CO)NC(=O)[C@H](C)NC(=O)[C@H](C(C)(C)C)NC(=O)[C@@H](NC(=O)[C@H](Cc2c[nH]c3ccccc23)NC(C)=O)CSSC[C@@H](C(=O)N[C@H](C)C(=O)N[C@@H](CCN)C(=O)N[C@H](C(=O)N[C@@H](CCN)C(=O)N[C@H]2CCNC(=O)[C@H]([C@@H](C)O)NC(=O)[C@H](CCN)NC(=O)[C@H](CCN)NC(=O)[C@H](CC(C)C)NC(=O)[C@@H](Cc3ccccc3)NC(=O)[C@H](CCN)NC2=O)[C@@H](C)O)NC(=O)[C@H](Cc2ccc(O)cc2)NC(=O)[C@H](CO)NC1=O [Ex. 29] (Ac-WC[Tle]AS[dP]P[Nle]SYC[dA][Dab]T[Dab][Dab][Dab][dF]L[Dab][Dab]T; disulfide 2-11; lactam 16-C)	0.25	0.25	1	0.125	1	0.25	0.5	<1								
CCCC[C@@H]1NC(=O)[C@@H]2CCCN2C(=O)[C@H]2CCCN2C(=O)[C@H](CO)NC(=O)[C@H](CO)NC(=O)[C@H](C(C)(C)C)NC(=O)[C@@H](NC(=O)[C@@H](N)Cc2c[nH]c3ccccc23)CSSC[C@@H](C(=O)N[C@H](Cc2ccc(O)cc2)C(=O)N[C@@H](CCN)C(=O)N[C@@H](CCN)C(=O)N[C@H]2CCNC(=O)[C@H]([C@@H](C)O)NC(=O)[C@H](CCN)NC(=O)[C@H](CCN)NC(=O)[C@H](CC(C)C)NC(=O)[C@@H](Cc3ccccc3)NC(=O)[C@H](CCN)NC2=O)NC(=O)[C@H](Cc2ccc(O)cc2)NC(=O)[C@H](CO)NC1=O [Ex. 109] (H-WC[Tle]SS[dP]P[Nle]SYC[dY][Dab][Dab][Dab][Dab][dF]L[Dab][Dab]T; disulfide 2-11; lactam 15-C)	0.5	0.5	0.5	0.25	1	1	1	<1								
CC(C)C[C@@H]1NC(=O)[C@H](CO)NC(=O)[C@H](C(C)C)NC(=O)[C@@H]2CCCN2C(=O)[C@H]2CCCN2C(=O)[C@H](CO)NC(=O)[C@H](C)NC(=O)[C@H](C(C)(C)C)NC(=O)[C@@H](NC(=O)[C@@H](N)Cc2c[nH]c3ccccc23)CSSC[C@@H](C(=O)N[C@@H](CCCN)C(=O)N[C@@H](CCN)C(=O)N[C@H]2CCNC(=O)[C@H]([C@@H](C)O)NC(=O)[C@H](CCN)NC(=O)[C@H](CCN)NC(=O)[C@H](CC(C)C)NC(=O)[C@@H](Cc3ccccc3)NC(=O)[C@H](CCN)NC2=O)NC1=O [Ex. 188] (H-WC[Tle]AS[dP]PVSLC[Orn][Dab][Dab][Dab][dF]L[Dab][Dab]T; disulfide 2-11; lactam 14-C)	1	0.25	0.25	0.25	4	0.25	1	<1								
CC(=O)N[C@@H](Cc1c[nH]c2ccccc12)C(=O)N[C@H]1CSSC[C@@H](C(=O)N[C@@H](CCCN)C(=O)N[C@H](C(=O)N[C@@H](CCN)C(=O)N[C@@H](CCN)C(=O)N[C@H]2CCNC(=O)[C@H]([C@@H](C)O)NC(=O)[C@H](CCN)NC(=O)[C@H](CCN)NC(=O)[C@H](CC(C)C)NC(=O)[C@@H](Cc3ccccc3)NC(=O)[C@H](CCN)NC2=O)[C@@H](C)O)NC(=O)[C@H](Cc2ccc(O)cc2)NC(=O)[C@H](CC(=O)O)NC(=O)[C@H](CC(C)C)NC(=O)[C@@H]2CCCN2C(=O)[C@H]2CCCN2C(=O)[C@H](CO)NC(=O)[C@H](Cc2ccc(O)cc2)NC(=O)[C@H](C(C)(C)C)NC1=O [Ex. 146] (Ac-WC[Tle]YS[dP]PLDYC[Orn]T[Dab][Dab][Dab][Dab][dF]L[Dab][Dab]T; disulfide 2-11; lactam 16-C)	1	0.125	4	0.25	4	0.25	0.5	3								
CC(C)C[C@@H]1NC(=O)[C@@H](CC(C)C)NC(=O)[C@H](CCN)NC(=O)[C@@H](NC(=O)[C@H](CCN)NC(=O)CN(C)C(=O)[C@@H]2CSSC[C@H](N)C(=O)N[C@@H](Cc3c[nH]c4ccccc34)C(=O)N[C@@H](CCN)C(=O)N[C@@H](C(C)C)C(=O)N[C@H]3CSSC[C@H](NC(=O)[C@H](CC(C)C)NC(=O)[C@@H]4CCCN4C(=O)[C@H]4CCCN4C(=O)[C@H](CO)NC3=O)C(=O)N[C@@H](Cc3ccc(O)cc3)C(=O)N[C@@H](CCN)C(=O)N[C@@H](CCCN)C(=O)N2)CCNC(=O)[C@H]([C@@H](C)O)NC(=O)[C@H](CCN)NC(=O)[C@H](CCN)NC1=O [Ex. 212] (H-CW[Dab]VCS[dP]PLCY[Dab][Orn]C[Sar][Dab][Dab][Dab][dL]L[Dab][Dab]T; disulfide 1-14, 5-10; lactam 17-C)									1	1	1	0.5	4	2	0.5	1
CC(=O)N[C@@H](Cc1c[nH]c2ccccc12)C(=O)N[C@H]1CSSC[C@@H](C(=O)N[C@@H](CCCN)C(=O)N[C@H](C(=O)N[C@@H](CCN)C(=O)N[C@H]2CCNC(=O)[C@H]([C@@H](C)O)NC(=O)[C@H](CCN)NC(=O)[C@H](CCN)NC(=O)[C@H](CC(C)C)NC(=O)[C@@H](Cc3ccccc3)NC(=O)[C@H](CCN)NC2=O)[C@@H](C)O)NC(=O)[C@H](CC2CCCCC2)NC(=O)[C@H](Cc2c[nH]cn2)NC(=O)[C@H](CC(C)C)NC(=O)[C@@H]2CCCN2C(=O)[C@H]2CCCN2C(=O)[C@H]([C@H](C)O)NC(=O)[C@H](C)NC(=O)[C@H](C(C)(C)C)NC1=O [Ex. 113] (Ac-WC[Tle]A[aThr][dP]PLH[Cha]C[Orn]T[Dab][Dab][Dab][dF]L[Dab][Dab]T; disulfide 2-11; lactam 15-C)	0.25	1	0.5	1	4	2	1	5								
CC(C)C[C@@H]1NC(=O)[C@@H](CC(C)C)NC(=O)[C@H](CCN)NC(=O)[C@@H](NC(=O)[C@H](CCN)NC(=O)[C@H](NC(=O)[C@H](CCN)NC(=O)[C@H](CCCN)NC(=O)[C@@H]2CSSC[C@H](NC(=O)[C@@H](N)Cc3c[nH]c4ccccc34)C(=O)N[C@@H](C(C)C)C(=O)N[C@@H](C)C(=O)N[C@@H](CO)C(=O)N3CCC[C@@H]3C(=O)N3CCC[C@H]3C(=O)N[C@@H](CC(C)C)C(=O)N[C@@H](CO)C(=O)N[C@@H](Cc3ccc(O)cc3)C(=O)N2)[C@H](C)O)CCNC(=O)[C@H]([C@@H](C)O)NC(=O)[C@H](CCN)NC(=O)[C@H](CCN)NC1=O [Ex. 121] (H-WCVAS[dP]PLSYC[Orn][Dab][dT][Dab][Dab][Dab][dL]L[Dab][Dab]T; disulfide 2-11; lactam 16-C)	0.125	0.125	0.125	0.125	0.25	0.25	0.5	<1								
CCCC[C@@H]1NC(=O)[C@@H]2CCCN2C(=O)[C@H]2CCCN2C(=O)[C@H](CO)NC(=O)[C@H](CO)NC(=O)[C@H](C(C)C)NC(=O)[C@@H](NC(=O)[C@@H](N)Cc2c[nH]c3ccccc23)CSSC[C@@H](C(=O)N(C)CC(=O)N[C@@H](CCN)C(=O)N[C@H](C(=O)N[C@@H](CCN)C(=O)N[C@H]2CCNC(=O)[C@H]([C@@H](C)O)NC(=O)[C@H](CCN)NC(=O)[C@H](CCN)NC(=O)[C@H](CC(C)C)NC(=O)[C@@H](CC(C)C)NC(=O)[C@H](CCN)NC2=O)[C@@H](C)O)NC(=O)[C@H](C)NC(=O)[C@H](CN)NC1=O [Ex. 150] (H-WCVSS[dP]P[Nle][Dap]AC[Sar][Dab]T[Dab][Dab][Dab][dL]L[Dab][Dab]T; disulfide 2-11; lactam 16-C)	0.25	0.25	0.5	0.125	8	0.25	1	<1								
